pIC50: −log10 of the molar value.
What was measured:
Flk-1 = details: Calbiochem product data; cited from earlier work
[1] = test system: rat neural stem cells from the adult lateral ventricle wall; experiment: Expansion of rat neural stem cell cultures, total cell counts at 7 days; type: cell-based; details: for block of the VEGF response / growth of neural stem cell cultures: total cell counts at 7 days; for growth of neural stem cell cultures: growth conditions (EGF and FGF-2), no recombinant VEGF, FIG. 30
Method: Neural stem cells were prepared according to the attached protocol. Cells were grown in serum-free medium, subcloned and used between passage 6 and 10. If not otherwise mentioned the experiments consisted of triplets for analysis and were independently repeated at least 3 times.
Basal Medium: Neurobasal medium (NB, Gibco BRL) & B27 supplement (Gibco BRL).
Growth Medium: NB, B27 supplement+20 ng/ml of FGF-2 (R&D Systems)+20 ng/ml EGF (R&D Systems)+2 μg/ml heparin (Sigma, Germany).
Cells were plated in Growth medium at 10.000 cells/ml and after 2 days switched to the experimental condition. Cells were kept under the experimental condition for 7 days.
Adult female Fischer-344 rats (3-4 months; Charles River, Germany) were killed via cervical dislocation, the brains of each rat were removed and stored at 4° C. in DPBS (PAN, Germany) with 4.5 g/L glucose (Merck, Germany) (DPBS/glu). Overlying meninges and blood vessels were removed. Ependymal zone including subependymal/subventricular zone form the lateral wall of the lateral ventricle were aseptically removed. The dissected tissue was transferred to fresh DPBS/glu, washed once, transferred to petri-dishes and dissociated mechanically into a single cell suspension. The cell suspension was washed in DPBS/glu in order to rinse off excess blood and resuspended in PPD-solution containing 0.01% Papain (Worthington Biochemicals, England), 0.1% dispase II (Boehringer, Germany), 0.01% DNase I (Worthington Biochemicals, England) and 12.4 mM MgSO4 in HBSS (PAN, Germany) without Mg^++/Ca^++ (PAA, Germany) and digested for 30 to 40 min at room temperature. The cell solution was triturated every 10 min. Dissociated cells were collected and resuspended in serum-free DMEM/F12 medium containing 2 mM L-glutamine and 0.1 g/L penicillin/streptomycin and washed three times with accurate trituration with a blue tip. Finally the single cell suspension was resuspended in Neurobasal medium (Gibco BRL, Germany) supplemented with B27 (Gibco BRL, Germany) (NB/B27), 2 mM L-glutamine (PAN, Germany), 0.1 g/L penicillin/streptomycin (PAN, Germany), 2 μg/ml heparin (Sigma, Germany), 20 ng/ml bFGF-2 (R&D Systems, Germany) and 20 ng/ml EGF (R&D Systems, Germany). Live cells were counted by trypan blue exclusion assay in a hemocytometer. Cells were seeded in T-25 culture flasks and cultures were maintained at 37° C. in an incubator with 95% air, 5% CO2. Single cells began to form spheres within 5 to 7 days of suspension culture and continued to grow in mass and number over the next weeks. Media were changed every 7 days.
The culture medium containing floating neurospheres was collected in a 15 ml centrifuge tube and centrifuged at 800 rpm. The pellet was resuspended in 200 μl of Accutase (Innovative Cell Technologies Inc., USA, distributed by PAA, Germany) and triturated about 10 times using a pipette. Then, the cell suspension was incubated at 37° C. for 10 min. Dissociated spheres were again triturated and resuspended in 800 μl of NB/B27 medium. An aliquot was counted by trypan blue exclusion assay in a hemocytometer to determine the amount of live and dead cells. 1×10^5 cells were plated in T75 culture flasks for long term passaging (10 ml of culture medium per flask) in NB/B27 medium. The cells obtained after Accutase-treatment of primary neurospheres proliferated and yielded secondary neurospheres. Secondary neurospheres were passaged 7 to 9 days after plating primary neurosphere cells. Similar to primary cultures and primary neurospheres, single cells obtained after dissociation of secondary neurospheres proliferated and yielded tertiary neurospheres. […]

Mouse Neural Stem Cells = experiment: Neuronal differentiation (β-III Tubulin) of adult mouse neural stem cells; type: cell-based; details: 1 nM, 7 days
Method: Adult mouse neurosperes were dissociated with trypsin (Gibco) into single cells and transferred to poly-D-Lysine plates (BD) in the above culture medium, without growth factors, supplemented with 1% Fetal Calf Serum (Gibco). The cells were incubated over night to adhere to the plate. The medium was changed to culture medium, without growth factors, supplemented with 1 nM PDGF-AA or PDFG-BB (both from R&D Systems). The medium with new substance added every second day. The cells were incubated for a total of 7 days.
The cells were washed two times with PBS (Gibco) and fixed for 15 min RT with 4% Formaldehyde (Sigma) and permeabilized 20 min RT in 0.1% Triton X-100 (Sigma) in PBS. After fixation and permeabilization the cells were labelled with mouse monoclonal anti-β-III Tubulin (1:500 Promega). Primary antibody was visualized with anti mouse Texas-Red (1:100 Vector Laboratories). All antibodies were diluted in PBS with 0.1% Triton X-100.
The cells were washed twice with PBS (Gibco) and lysed with 200 ul lysis buffer/well. The lysis buffer contained PBS, 0.1% Triton X-100, 1 mM EDTA and 1 tab1. Protease inhibitor cocktail (Roche). The samples were run on a 4-12% Bis-Tris gel (Novex) under reduced conditions with MOPS buffer (Novex) and blotted onto a Hybond ECL nitrocellulose membrane (Amersham Biotech). Blocked in 5% ECL-Block (Amersham Biotech) in PBS+0.1% Tween 20 (Sigma). The membranes were labelled with mouse monoclonal anti-β-III Tubulin (1:5000 Promega). The primary antibody was detected using a secondary antibody anti-mouse-HRP (1:10000 Amersham Biotech) and ECL Plus+ Western Blot Detection Kit (Amersham Biotech). All antibodies were diluted in PBS with 0.1% Triton X-100, 1% ECL Block. The signal were then captured on ECL Hyper Film (Amersham Biotech)

[2] = test system: Mouse Cultured Neural Stemcells/Progenitors; experiment: GFAP and β-III Tubulin in adherent mouse neural stem cells (Western blot, immunocytochemistry); type: cell-based
Method: NSCs, cultured as described above, were seeded from passage 2 into DMEM/F12 supplemented with B27 into a 24-well plate (poly-D-lysine-coated) as single cells (70.000 cells/well), to which PDGF-AA was added at the concentration of 1 nM. The cells were then differentiated for 5 days changing medium plus/minus PDGF-AA every 48 hours. At day 6 the cells were harvested and Western blots were performed as described elsewhere (Patrone C et al (1999) Proc Natl Acad Sci USA. 96(19):10905-10). A neuronal marker antibody against β-III Tubulin, 1:5000 (BioSite), or a glial marker antibody against glial fibrillary acidic protein (GFAP) 1:5000, (DAKO) was used to measure phenotypic fates.
In another set of experiments the effects of PDGF-AA were studied with immunocytochemical methods in fixed adherently cultured neural stem cells. […] In other experiments with PDGF-AA, analyzed by immunocytochemistry, it was shown that the factor caused a general shift from a stem cell phenotype to a progenitor phenotype in that cultures contained both of the markers, GFAP and β-III Tubulin. […] In concurrent experiments the effect of PDGF-BB was also studied.

[3] = test system: cultured, non-adherent mouse neurospheres; experiment: Intracellular ATP assay, proliferation of cultured mouse neurospheres; type: cell-based; details: FIG. 1
Method: The anterior lateral wall of the lateral ventricle of 5-6 week old mice was enzymatically dissociated in 0.8 mg/ml hyaluronidase and 0.5 mg/ml trypsin in DMEM containing 4.5 mg/ml glucose and 80 units/ml DNase at 37° C. for 20 min. The cells were gently triturated and mixed with three volumes of Neurosphere medium (DMEM/F12, B27 supplement, 125 mM HEPES pH 7.4) containing 20 ng/ml EGF (unless otherwise stated), 100 units/ml penicillin and 100 μg/ml streptomycin. After passing through a 70 μm strainer, the cells were pelleted at 160×g for 5 min. The supernatant was subsequently removed and the cells resuspended in Neurosphere medium supplemented as above, plated out in culture dishes and incubated at 37° C. Neurospheres were ready to be split approximately 7 days after plating.
To split the neurospheres, cells were collected by centrifugation at 160×g for 5 min. The conditioned supernatant (conditioned medium) was removed and saved. The neurospheres were resuspended in 0.5 ml Trypsin/EDTA in HBSS (1×), incubated at 37° C. for 2 min and triturated gently to aid dissociation. Following a further 3 min incubation at 37° C. and trituration, 3 volumes of ice cold Neurosphere medium medium w/o EGF were added to stop further trypsin activity. […]
After 3 days of treatment, intracelluar ATP was measured using the ATP SL kit (Biothema) according to the manufacturer's instructions.

adult rats = details: four weeks after 7 days of continuous VEGF infusion into the lateral ventricle
[4] = test system: cells from the lateral ventricle wall; details: after intraventricular infusion, compared to aCSF controls; FIG. 33
[5] = test system: Neural stem cell cultures; details: 50 ng/ml VEGF, 100 nM PADQ or 700 nM SU1498 for 7 days
Method: BrdU (10 μM) was added to the culture medium 24 hrs before cells were harvested and lysed. DNA was extracted and BrdU content was determined using an anti-BrdU-ELISA. The data are presented as percent changes in optical density compared to control (Growth medium).

[6] = basal medium, VEGF 50 ng/ml, PADQ 100 nM, SU1498 700 nM
[7] = growth conditions (including EGF and FGF-2)
[8] = 1 nM, 6 days, adherent culture, compared to treatment with EGF
[9] = fixed adherently cultured neural stem cells

Molecule: COc1cc2ncnc(Nc3ccc(Cl)cc3F)c2cc1OC [PADQ]
- pIC50 (Flk-1): 7.00
- block of the VEGF response [1, 6]: able to block the VEGF response
- growth of neural stem cell cultures [1]: significantly reduce the growth
- block of the VEGF response [1, 7]: able to block the VEGF response

Molecule: CC(C)c1cc(/C=C(\C#N)C(=O)NCCCc2ccccc2)cc(C(C)C)c1O [SU1498, (E)-3-(3,5-Diisopropyl-4-hydroxyphenyl)-2-[(3-phenyl-n-propyl)amino-carbonyl]acrylonitrile]
- pIC50 (Flk-1): 6.15
- block of the VEGF response [1, 6]: able to block the VEGF response
- growth of neural stem cell cultures [1]: significantly reduce the growth
- block of the VEGF response [1, 7]: able to block the VEGF response

Molecule: PDGF-AA: human recombinant PDGF-AA, platelet derived growth factor A-chain homodimer
- number of β-III Tubulin positive cells in culture (Mouse Neural Stem Cells; compared to the control, FIG. 5): significantly increase the number of β-III Tubulin positive cells
- levels of β-III Tubulin protein (Western blot) (Mouse Neural Stem Cells; compared with the control, FIG. 6): significantly increased levels of β-III Tubulin protein
- neuronal differentiation of cultured mouse neural stem cells/progenitors (Mouse Neural Stem Cells; FIG. 5 and FIG. 6): trigger neuronal differentiation
- GFAP (Western blot) [2, 8]: downregulation of GFAP
- β-III Tubulin neuronal marker (Western blot) [2, 8]: significant increase
- GFAP (immunocytochemistry) [2, 9]: down regulation of GFAP
- β-III Tubulin (immunocytochemistry) [2, 9]: upregulation of β-III Tubulin
- effect on the proliferative effect of PDGF-BB when added together ([3]; PDGF-AA added together with PDGF-BB, B27 medium): did not alter the proliferative effect of PDGF-BB
- proliferative effect (intracellular ATP) ([3]; growth media supplemented with B27, 1 nM-0.0005 nM, 3 days of treatment): weaker compared to BB

Molecule: VEGF
- BrdU labeled cells in the dentate gyrus (adult rats): marked increase
- number of spheres formed in culture from lateral ventricle wall cells [4]: significantly increased
- stimulation of proliferation of neural stem cell cultures ([1]; different concentrations, 7 days, FIG. 24, FIG. 25): dose-dependent stimulatory effect
- ED50 (expansion of neural stem cell cultures) ([1]; growth medium, 7 days, FIG. 27): ~0.01 µg/mL
- concentration of maximal stimulation ([1]; growth medium, 7 days, FIG. 27): 50 ng/mL
- BrdU incorporation (proliferation ELISA) [5]: more BrdU
- DNA strand breaks (apoptosis ELISA) [5]: reduced the amount of DNA strand breaks

Source: patent publication US7981863B2, “Treatment of Parkinson's disease with PDGF” (Neuronova AB, priority 2001, dated 2011)
